Reference: ChEMBL document CHEMBL2157996, “Thioglycine and L-thiovaline: biologically active H₂S-donors” (Bioorg Med Chem, 2012)
One block for each compound: values may come before it. Activity calls are given as the source filed them. The calls are words filed in the database; no cut-off is given here.

Legend:
[1] = Induction of H2S production after 15 mins by methylene blue method; assay type: physicochemical; conditions: 0.25 h
[2] = Induction of H2S production at 200 uM measured every 15 sec to 1 min by thiobimane fluorescent method
[3] = Vasodilatory activity in Wistar rat RASMC cells assessed as increase in cGMP levels after 5 mins by enzyme immunoassay; assay type: functional, cell-based
[4] = Drug degradation in Hanks buffered salt solution assessed as formation of glycine N-carboxyanhydride at 37 degC; assay type: physicochemical; conditions: buffer
[5] = Vasodilatory activity in Wistar rat RASMC cells assessed as increase in cGMP levels at 100 uM after 5 mins by enzyme immunoassay relative to control; assay type: functional, cell-based
[6] = Stability of the compound assessed as compound remaining at 40 degC after 24 hrs by NMR spectroscopy in the presence of NaHCO3; assay type: physicochemical; conditions: NaHCO3 present; read-out: Stability
[7] = Induction of H2S production by sodium nitroprusside assay; assay type: physicochemical
[8] = Stability of the compound assessed as compound remaining at 40 degC after 36 hrs by NMR spectroscopy in the presence of NaHCO3; assay type: physicochemical; conditions: NaHCO3 present; read-out: Stability
[9] = Induction of H2S production by amperometry; assay type: physicochemical
Rattus norvegicus [10] = assay: Induction of H2S release in Sprague-Dawley rat plasma assessed as increase in H2S levels at 5 mg/kg, ip upto 8 hrs by amperometry; assay type: functional, organism-based; parameters: dose 5 mg/kg
Rattus norvegicus [11] = assay: Induction of H2S release in Sprague-Dawley rat plasma assessed as increase in H2S levels at 5 mg/kg, ip after 30 mins by amperometry; assay type: functional, organism-based; parameters: dose 5 mg/kg
[12] = Stability of the compound assessed as compound remaining at 25 degC after 24 hrs by NMR spectroscopy in the presence of NaHCO3; assay type: physicochemical; conditions: NaHCO3 present; read-out: Stability
[13] = Induction of H2S production after 60 mins by thiobimane fluorescent method; assay type: physicochemical; conditions: 1 h
Rattus norvegicus [14] = assay: Induction of H2S release in Sprague-Dawley rat plasma assessed as increase in H2S levels at 5 mg/kg, ip by amperometry; assay type: functional, organism-based; parameters: dose 5 mg/kg; conditions: TDE = time-dependent effect
[15] = Vasodilatory activity in Wistar rat RASMC cells assessed as increase in cGMP levels up to 3 mM after 5 mins by enzyme immunoassay; assay type: functional, cell-based
[16] = Stability of the compound assessed as compound remaining at 40 degC after 72 hrs by NMR spectroscopy in the presence of NaHCO3; assay type: physicochemical; conditions: NaHCO3 present; read-out: Stability
[17] = Stability of the compound assessed as compound remaining at 40 degC after 60 hrs by NMR spectroscopy in the presence of NaHCO3; assay type: physicochemical; conditions: NaHCO3 present; read-out: Stability
[18] = Induction of H2S production at 100 uM by amperometry; assay type: physicochemical
[19] = Stability of the compound assessed as compound remaining at 40 degC after 48 hrs by NMR spectroscopy in the presence of NaHCO3; assay type: physicochemical; conditions: NaHCO3 present; read-out: Stability

Activity [1]: Active | Activity [2]: Active | Drug metabolism [4]: Active
SMILES: CC(C)[C@H](N)C(=O)S
Activity [3]: Dose-dependent effect

SMILES: CC(C)[C@H](N)C(=O)O
Activity [5]: inactive

SMILES: NCC(=O)O
Activity [5]: inactive

remaining at 24 h [6]: 88% | Activity [1]: Active | Activity [7]: Active | remaining at 36 h [8]: 83% | Activity [9]: Dose-dependent effect | Activity [2]: Active | remaining at 24 h [12]: 100% | Activity [13]: Active | remaining at 72 h [16]: 85% | remaining at 60 h [17]: 72% | Drug metabolism [4]: Active | Activity [18]: Active | remaining at 48 h [19]: 76%
SMILES: NCC(=O)S [THIOGLYCIN]
Activity (Rattus norvegicus [10]): Active | Activity (Rattus norvegicus [11]): Active | fold change (FC) [5]: 10 | Activity (Rattus norvegicus [14]): tde | Activity [3]: Dose-dependent effect | Activity [15]: Active
